Measurements taken from patent US9790178B2, “Pyrrolidinyl urea, thiourea, guanidine and cyanoguanidine compounds as TrkA kinase inhibitors” (Array BioPharma Inc., priority 2012, dated 2017).

Columns and labels:
Test in all cases: KinaseProfiler off-target kinase profiling
Assay type in all cases: biochemical
Conditions in all cases: 10 μM, ATP near Km
CLK3 = biological target: T1, CLK3 (Homo sapiens, UniProt P49761)
T1 construct: purchased Millipore, Inc. (KinaseProfiler service)
Summary of the method: (§1)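 10 μM test compound; [ATP] near Km for each enzyme; duplicate determinations; output = average % of control.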

IKKbeta = biological target: T2, IKKbeta (Homo sapiens, UniProt O14920)
T2 construct: purchased Millipore, Inc. (KinaseProfiler service)
Summary of the method: as §1

MLK1 = biological target: T3, MLK1 (Homo sapiens, UniProt P80192)
T3 construct: purchased Millipore, Inc. (KinaseProfiler service)
Summary of the method: as §1

ITK = biological target: T4, ITK (Homo sapiens, UniProt Q08881)
T4 construct: purchased Millipore, Inc. (KinaseProfiler service)
Summary of the method: as §1

Pim-2 = biological target: T5, Pim-2 (Homo sapiens, UniProt Q9P1W9)
T5 construct: purchased Millipore, Inc. (KinaseProfiler service)
Summary of the method: as §1

DAPK2 = biological target: T6, DAPK2 (Homo sapiens, UniProt Q9UIK4)
T6 construct: purchased Millipore, Inc. (KinaseProfiler service)
Summary of the method: as §1

MYLK = biological target: T7, MYLK (Homo sapiens, UniProt Q15746)
T7 construct: purchased Millipore, Inc. (KinaseProfiler service)
Summary of the method: as §1

ErbB4 = biological target: T8, ErbB4 (Homo sapiens, UniProt Q15303)
T8 construct: purchased Millipore, Inc. (KinaseProfiler service)
Summary of the method: as §1

PASK = biological target: T9, PASK (Homo sapiens, UniProt Q96RG2)
T9 construct: purchased Millipore, Inc. (KinaseProfiler service)
Summary of the method: as §1

LOK = biological target: T10, LOK (Homo sapiens, UniProt O94804)
T10 construct: purchased Millipore, Inc. (KinaseProfiler service)
Summary of the method: as §1

MAP4K2 = biological target: T11, MAP4K2 (Homo sapiens, UniProt Q12851)
T11 construct: purchased Millipore, Inc. (KinaseProfiler service)
Summary of the method: as §1

ZAP-70 = biological target: T12, ZAP-70 (Homo sapiens, UniProt P43403)
T12 construct: purchased Millipore, Inc. (KinaseProfiler service)
Summary of the method: as §1

PAK3 = biological target: T13, PAK3 (Homo sapiens, UniProt O75914)
T13 construct: purchased Millipore, Inc. (KinaseProfiler service)
Summary of the method: as §1

Hck = biological target: T14, Hck (Homo sapiens, UniProt P08631)
T14 construct: purchased Millipore, Inc. (KinaseProfiler service)
Summary of the method: as §1

PKCtheta = biological target: T15, PKCtheta (Homo sapiens, UniProt Q04759)
T15 construct: purchased Millipore (KinaseProfiler service)
Summary of the method: as §1

NEK7 = biological target: T16, NEK7 (Homo sapiens, UniProt Q8TDX7)
T16 construct: purchased Millipore, Inc. (KinaseProfiler service)
Summary of the method: as §1

Fgr = biological target: T17, Fgr (Homo sapiens, UniProt P09769)
T17 construct: purchased Millipore, Inc. (KinaseProfiler service)
Summary of the method: as §1

CHK2 = biological target: T18, CHK2 (Homo sapiens, UniProt O96017)
T18 construct: purchased Millipore, Inc. (KinaseProfiler service)
Summary of the method: as §1

Txk = biological target: T19, Txk (Homo sapiens, UniProt P42681)
T19 construct: purchased Millipore, Inc. (KinaseProfiler service)
Summary of the method: as §1

CK2 = biological target: T20, CK2 (Homo sapiens, UniProt P68400)
T20 construct: purchased Millipore, Inc. (KinaseProfiler service)
Summary of the method: as §1

MKK4_m = biological target: T21, MKK4_m (Mus musculus, UniProt P47809)
T21 construct: purchased Millipore, Inc. (KinaseProfiler service)
Summary of the method: as §1

Flt1 = biological target: T22, Flt1 (Homo sapiens, UniProt P17948)
T22 construct: purchased Millipore, Inc. (KinaseProfiler service)
Summary of the method: as §1

CK1gamma2 = biological target: T23, CK1gamma2 (Homo sapiens, UniProt P78368)
T23 construct: purchased Millipore, Inc. (KinaseProfiler service)
Summary of the method: as §1

Abl = biological target: T24, Abl (Homo sapiens, UniProt P00519)
T24 construct: purchased Millipore, Inc. (KinaseProfiler service)
Summary of the method: as §1

LIMK1 = biological target: T25, LIMK1 (Homo sapiens, UniProt P53667)
T25 construct: purchased Millipore, Inc. (KinaseProfiler service)
Summary of the method: as §1

PDK1 = biological target: T26, PDK1 (Homo sapiens, UniProt O15530)
T26 construct: purchased Millipore, Inc. (KinaseProfiler service)
Summary of the method: as §1

GSK3beta = biological target: T27, GSK3beta (Homo sapiens, UniProt P49841)
T27 construct: purchased Millipore, Inc. (KinaseProfiler service)
Summary of the method: as §1

Pim-3 = biological target: T28, Pim-3 (Homo sapiens, UniProt Q86V86)
T28 construct: purchased Millipore, Inc. (KinaseProfiler service)
Summary of the method: as §1

Flt3 = biological target: T29, Flt3 (Homo sapiens, UniProt P36888)
T29 construct: purchased Millipore, Inc. (KinaseProfiler service)
Summary of the method: as §1

ARK5 = biological target: T30, ARK5 (Homo sapiens, UniProt O60285)
T30 construct: purchased Millipore, Inc. (KinaseProfiler service)
Summary of the method: as §1

AKT1 = biological target: T31, AKT1 (Homo sapiens, UniProt P31749)
T31 construct: purchased Millipore, Inc. (KinaseProfiler service)
Summary of the method: as §1

MAP3K5 = biological target: T32, MAP3K5 (Homo sapiens, UniProt Q99683)
T32 construct: purchased Millipore, Inc. (KinaseProfiler service)
Summary of the method: as §1

Rse = biological target: T33, Rse (Homo sapiens, UniProt Q06418)
T33 construct: purchased Millipore (KinaseProfiler service)
Summary of the method: as §1

MKNK2 = biological target: T34, MKNK2 (Homo sapiens, UniProt Q9HBH9)
T34 construct: purchased Millipore, Inc. (KinaseProfiler service)
Summary of the method: as §1

PKCzeta = biological target: T35, PKCzeta (Homo sapiens, UniProt Q05513)
T35 construct: purchased Millipore (KinaseProfiler service)
Summary of the method: as §1

EphA8 = biological target: T36, EphA8 (Homo sapiens, UniProt P29322)
T36 construct: purchased Millipore, Inc. (KinaseProfiler service)
Summary of the method: as §1

IGF-1R = biological target: T37, IGF-1R (Homo sapiens, UniProt P08069)
T37 construct: purchased Millipore, Inc. (KinaseProfiler service)
Summary of the method: as §1

PTK6 = biological target: T38, PTK6 (Homo sapiens, UniProt Q13882)
T38 construct: purchased Millipore (KinaseProfiler service)
Summary of the method: as §1

GRK6 = biological target: T39, GRK6 (Homo sapiens, UniProt P43250)
T39 construct: purchased Millipore, Inc. (KinaseProfiler service)
Summary of the method: as §1

TBK1 = biological target: T40, TBK1 (Homo sapiens, UniProt Q9UHD2)
T40 construct: purchased Millipore, Inc. (KinaseProfiler service)
Summary of the method: as §1

CDK2/cyclinE = biological target: T41, CDK2/cyclinE (Homo sapiens, UniProt P24941)
T41 construct: purchased Millipore, Inc. (KinaseProfiler service)
Summary of the method: as §1

T39 sequence (P43250 whole entry): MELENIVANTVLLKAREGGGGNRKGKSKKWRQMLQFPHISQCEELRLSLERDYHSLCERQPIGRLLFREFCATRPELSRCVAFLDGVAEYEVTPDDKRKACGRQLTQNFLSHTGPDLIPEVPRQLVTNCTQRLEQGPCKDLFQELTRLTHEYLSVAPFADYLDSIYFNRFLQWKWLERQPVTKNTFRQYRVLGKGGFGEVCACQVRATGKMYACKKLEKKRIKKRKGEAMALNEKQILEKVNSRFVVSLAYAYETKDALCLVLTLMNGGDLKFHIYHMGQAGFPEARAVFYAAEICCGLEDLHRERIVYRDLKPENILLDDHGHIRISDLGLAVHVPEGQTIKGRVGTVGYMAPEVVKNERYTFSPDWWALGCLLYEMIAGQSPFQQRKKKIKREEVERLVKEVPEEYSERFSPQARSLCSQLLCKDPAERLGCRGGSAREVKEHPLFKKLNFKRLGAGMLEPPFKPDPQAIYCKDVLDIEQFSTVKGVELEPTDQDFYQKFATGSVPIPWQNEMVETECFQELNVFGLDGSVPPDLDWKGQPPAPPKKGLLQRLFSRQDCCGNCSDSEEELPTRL
T24 sequence (P00519 whole entry): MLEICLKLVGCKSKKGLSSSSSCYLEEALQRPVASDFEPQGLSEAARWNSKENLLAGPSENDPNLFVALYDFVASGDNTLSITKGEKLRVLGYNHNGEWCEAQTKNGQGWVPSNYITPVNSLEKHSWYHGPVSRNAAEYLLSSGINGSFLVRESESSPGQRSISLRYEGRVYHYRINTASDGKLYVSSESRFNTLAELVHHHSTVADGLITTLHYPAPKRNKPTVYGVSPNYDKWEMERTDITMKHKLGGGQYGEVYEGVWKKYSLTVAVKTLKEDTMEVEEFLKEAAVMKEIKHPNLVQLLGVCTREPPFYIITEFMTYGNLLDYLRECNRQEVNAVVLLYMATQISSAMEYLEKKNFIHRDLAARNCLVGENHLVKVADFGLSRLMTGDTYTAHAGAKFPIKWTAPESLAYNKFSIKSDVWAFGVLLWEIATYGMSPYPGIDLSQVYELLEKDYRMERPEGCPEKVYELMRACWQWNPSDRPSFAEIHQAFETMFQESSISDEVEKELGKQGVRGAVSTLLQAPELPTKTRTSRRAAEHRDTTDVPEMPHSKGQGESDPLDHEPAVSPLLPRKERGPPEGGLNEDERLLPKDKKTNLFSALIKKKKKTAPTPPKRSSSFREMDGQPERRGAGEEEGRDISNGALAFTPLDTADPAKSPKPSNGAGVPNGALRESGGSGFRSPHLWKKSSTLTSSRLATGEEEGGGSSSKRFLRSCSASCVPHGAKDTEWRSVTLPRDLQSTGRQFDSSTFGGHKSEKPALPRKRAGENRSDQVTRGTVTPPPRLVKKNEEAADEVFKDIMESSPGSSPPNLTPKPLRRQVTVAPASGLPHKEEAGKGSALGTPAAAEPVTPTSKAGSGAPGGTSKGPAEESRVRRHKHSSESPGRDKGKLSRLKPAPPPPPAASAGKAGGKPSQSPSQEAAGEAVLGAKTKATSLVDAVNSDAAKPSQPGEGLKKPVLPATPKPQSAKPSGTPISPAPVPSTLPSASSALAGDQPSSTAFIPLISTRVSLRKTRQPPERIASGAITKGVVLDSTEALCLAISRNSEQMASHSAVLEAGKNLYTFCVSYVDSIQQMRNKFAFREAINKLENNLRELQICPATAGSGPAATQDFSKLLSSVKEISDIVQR
T4 sequence (Q08881 whole entry): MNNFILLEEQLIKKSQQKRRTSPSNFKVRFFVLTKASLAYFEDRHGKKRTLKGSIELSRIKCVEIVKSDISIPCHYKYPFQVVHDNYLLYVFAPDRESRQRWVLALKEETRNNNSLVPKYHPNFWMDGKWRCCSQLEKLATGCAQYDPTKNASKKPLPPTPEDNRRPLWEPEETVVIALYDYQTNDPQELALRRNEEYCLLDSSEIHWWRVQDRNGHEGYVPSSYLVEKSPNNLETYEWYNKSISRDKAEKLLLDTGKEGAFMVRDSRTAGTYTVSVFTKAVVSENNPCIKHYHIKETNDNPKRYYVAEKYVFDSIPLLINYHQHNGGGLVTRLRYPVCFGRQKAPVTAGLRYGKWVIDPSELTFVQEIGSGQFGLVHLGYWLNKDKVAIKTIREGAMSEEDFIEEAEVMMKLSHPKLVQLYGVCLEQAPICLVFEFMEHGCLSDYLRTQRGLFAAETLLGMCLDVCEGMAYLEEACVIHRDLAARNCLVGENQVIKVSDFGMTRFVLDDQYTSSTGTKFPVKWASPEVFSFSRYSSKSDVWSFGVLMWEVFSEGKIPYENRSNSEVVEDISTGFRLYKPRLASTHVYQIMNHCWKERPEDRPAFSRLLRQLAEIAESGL
T16 sequence (Q8TDX7 whole entry): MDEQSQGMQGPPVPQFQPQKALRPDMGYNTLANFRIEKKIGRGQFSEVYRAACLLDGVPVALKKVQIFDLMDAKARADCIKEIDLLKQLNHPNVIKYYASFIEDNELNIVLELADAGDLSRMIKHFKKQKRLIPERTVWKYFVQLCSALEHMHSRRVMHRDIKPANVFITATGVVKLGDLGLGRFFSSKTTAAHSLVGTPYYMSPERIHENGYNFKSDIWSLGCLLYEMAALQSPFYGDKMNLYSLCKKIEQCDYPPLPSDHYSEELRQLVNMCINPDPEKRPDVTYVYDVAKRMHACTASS
T8 sequence (Q15303 26-1308): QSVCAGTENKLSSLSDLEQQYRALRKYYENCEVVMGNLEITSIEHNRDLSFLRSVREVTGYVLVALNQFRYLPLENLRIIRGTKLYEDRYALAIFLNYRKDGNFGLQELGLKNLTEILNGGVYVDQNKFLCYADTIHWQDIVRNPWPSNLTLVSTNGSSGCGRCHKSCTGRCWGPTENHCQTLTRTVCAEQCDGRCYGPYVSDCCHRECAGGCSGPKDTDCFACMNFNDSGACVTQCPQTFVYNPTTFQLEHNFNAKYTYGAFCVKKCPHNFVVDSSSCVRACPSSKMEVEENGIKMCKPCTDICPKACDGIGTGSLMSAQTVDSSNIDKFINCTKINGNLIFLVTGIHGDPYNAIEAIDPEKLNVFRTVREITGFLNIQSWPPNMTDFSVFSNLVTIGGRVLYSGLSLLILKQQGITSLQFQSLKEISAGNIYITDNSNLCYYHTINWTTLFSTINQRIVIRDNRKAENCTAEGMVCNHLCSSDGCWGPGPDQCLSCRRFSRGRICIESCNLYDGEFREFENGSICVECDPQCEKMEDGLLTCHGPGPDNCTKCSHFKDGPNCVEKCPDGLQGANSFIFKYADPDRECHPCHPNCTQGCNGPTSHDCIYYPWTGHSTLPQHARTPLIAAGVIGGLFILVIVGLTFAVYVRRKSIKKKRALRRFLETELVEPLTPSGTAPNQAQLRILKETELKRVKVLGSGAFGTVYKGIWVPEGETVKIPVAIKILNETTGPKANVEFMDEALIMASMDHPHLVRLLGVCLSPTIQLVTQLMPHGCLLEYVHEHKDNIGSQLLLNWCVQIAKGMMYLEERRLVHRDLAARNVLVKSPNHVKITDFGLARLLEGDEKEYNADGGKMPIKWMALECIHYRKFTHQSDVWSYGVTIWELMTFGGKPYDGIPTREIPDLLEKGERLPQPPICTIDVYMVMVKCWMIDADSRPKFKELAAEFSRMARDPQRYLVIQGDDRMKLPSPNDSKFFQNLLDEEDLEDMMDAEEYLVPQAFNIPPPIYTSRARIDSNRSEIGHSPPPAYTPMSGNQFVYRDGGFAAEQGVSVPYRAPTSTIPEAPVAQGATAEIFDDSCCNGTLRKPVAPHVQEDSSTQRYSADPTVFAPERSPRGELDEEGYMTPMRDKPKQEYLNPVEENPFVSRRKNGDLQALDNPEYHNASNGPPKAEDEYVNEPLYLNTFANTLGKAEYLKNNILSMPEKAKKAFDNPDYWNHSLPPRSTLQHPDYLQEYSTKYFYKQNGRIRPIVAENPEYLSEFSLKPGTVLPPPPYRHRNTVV
T20 sequence (P68400 whole entry): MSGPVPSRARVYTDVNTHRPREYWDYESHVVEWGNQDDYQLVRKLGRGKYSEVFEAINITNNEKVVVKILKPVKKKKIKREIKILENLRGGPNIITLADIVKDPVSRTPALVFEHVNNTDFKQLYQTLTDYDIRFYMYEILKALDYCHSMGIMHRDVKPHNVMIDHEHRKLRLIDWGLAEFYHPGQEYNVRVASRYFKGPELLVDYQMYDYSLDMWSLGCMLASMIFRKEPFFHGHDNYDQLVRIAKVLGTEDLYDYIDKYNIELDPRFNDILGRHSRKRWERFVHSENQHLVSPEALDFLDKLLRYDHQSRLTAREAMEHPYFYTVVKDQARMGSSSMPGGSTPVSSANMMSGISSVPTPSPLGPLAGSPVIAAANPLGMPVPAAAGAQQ
T20 sequence (P67870 whole entry partner): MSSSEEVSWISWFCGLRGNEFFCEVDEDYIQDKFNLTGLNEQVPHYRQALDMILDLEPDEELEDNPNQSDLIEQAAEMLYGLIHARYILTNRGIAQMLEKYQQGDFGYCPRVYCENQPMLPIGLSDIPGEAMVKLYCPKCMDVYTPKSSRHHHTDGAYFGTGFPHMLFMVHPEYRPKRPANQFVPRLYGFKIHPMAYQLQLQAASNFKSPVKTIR
T17 sequence (P09769 whole entry): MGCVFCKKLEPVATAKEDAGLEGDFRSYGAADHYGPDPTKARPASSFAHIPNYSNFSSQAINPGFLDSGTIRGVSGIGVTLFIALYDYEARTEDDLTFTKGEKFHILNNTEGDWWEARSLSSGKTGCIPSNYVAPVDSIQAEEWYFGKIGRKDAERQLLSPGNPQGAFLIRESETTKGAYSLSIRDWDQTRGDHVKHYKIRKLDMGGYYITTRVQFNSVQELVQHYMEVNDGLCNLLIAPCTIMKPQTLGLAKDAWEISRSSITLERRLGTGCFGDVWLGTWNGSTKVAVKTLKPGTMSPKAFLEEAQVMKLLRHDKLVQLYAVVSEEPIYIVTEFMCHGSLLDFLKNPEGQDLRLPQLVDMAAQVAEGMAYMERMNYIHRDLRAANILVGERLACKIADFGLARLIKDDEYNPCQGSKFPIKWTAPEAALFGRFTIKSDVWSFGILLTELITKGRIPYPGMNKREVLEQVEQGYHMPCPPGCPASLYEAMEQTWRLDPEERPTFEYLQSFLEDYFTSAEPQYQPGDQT

SMILES: COCCN1C[C@@H](NC(=O)Nc2c(-c3ccccc3)nc3c(C)nccn23)[C@H](c2ccc(F)c(F)c2)C1 [Example 20, 1-((3S,4R)-4-(3,4-difluorophenyl)-1-(2-methoxyethyl)pyrrolidin-3-yl)-3-(8-methyl-2-phenylimidazo[1,2-a]pyrazin-3-yl)urea]
- Avg. POC (CLK3): 107 POC
- Avg. POC (IKKbeta): 107.5 POC
- Avg. POC (MLK1): 100 POC
- Avg. POC (ITK): 122.5 POC
- Avg. POC (Pim-2): 122.5 POC
- Avg. POC (DAPK2): 104 POC
- Avg. POC (MYLK): 110 POC
- Avg. POC (ErbB4): 97.5 POC
- Avg. POC (PASK): 111 POC
- Avg. POC (LOK): 108.5 POC
- Avg. POC (MAP4K2): 112 POC
- Avg. POC (ZAP-70): 102.5 POC
- Avg. POC (PAK3): 219.5 POC
- Avg. POC (Hck): 110 POC
- Avg. POC (PKCtheta): 111.5 POC
- Avg. POC (NEK7): 105.5 POC
- Avg. POC (Fgr): 121 POC
- Avg. POC (CHK2): 138 POC
- Avg. POC (Txk): 130 POC
- Avg. POC (CK2): 109 POC
- Avg. POC (MKK4_m): 113 POC
- Avg. POC (Flt1): 100 POC
- Avg. POC (CK1gamma2): 110 POC
- Avg. POC (Abl): 114 POC
- Avg. POC (LIMK1): 103 POC
- Avg. POC (PDK1): 119.5 POC
- Avg. POC (GSK3beta): 129 POC
- Avg. POC (Pim-3): 98 POC
- Avg. POC (Flt3): 110 POC
- Avg. POC (ARK5): 104 POC
- Avg. POC (AKT1): 109 POC
- Avg. POC (MAP3K5): 88 POC
- Avg. POC (Rse): 102.5 POC
- Avg. POC (MKNK2): 103 POC
- Avg. POC (PKCzeta): 104 POC
- Avg. POC (EphA8): 98.5 POC
- Avg. POC (IGF-1R): 73 POC
- Avg. POC (PTK6): 114 POC
- Avg. POC (GRK6): 110 POC
- Avg. POC (TBK1): 114 POC
- Avg. POC (CDK2/cyclinE): 118.5 POC
